According to patent US4487965A, “Trans-3-(4'-tert.-Butylcyclohex-1'yl)-2-methyl-1-dialkylaminopropanes, their preparation and their use as drugs” (BASF Aktiengesellschaft, priority 1982, dated 1984):

Columns and labels:
[1] = test system: Trichophyton mentagrophytes; experiment: guinea pig trichophytosis model, external application; format: in vivo; conditions: externally once daily
Method: Furthermore, the novel compounds were tested in the guinea pig trichophyt is model (Trichophyton mentagrophytes; cf. Heffter-Heubner: Handbuch der experimentellen Pharmakologie, Volume XVI/11A, Springer Verlag, Berlin, Heidelberg, New York, 1967), in which the compounds were applied externally in the form of 0.2, 0.5 and 1% strength suspensions. Application was effected once daily for 4 and 7 days respectively. After the 4th and 7th day of treatment, and 7 days after the last treatment, hairs or scales were pulled off at from 3 to 5 points in the infected area in each animal, and were incubated in Sabourand dextrose bouillon.
Evaluation was carried out by monitoring fungal growth after incubation for 8 days.

[2] = test system: Trichophyton mentagroph. ATCC 4807; experiment: in vitro antimicrobial activity, agar dilution test (minimum inhibitory concentrations); format: cell-based, Trichophyton mentagrophytes
Method: (§1) The in vitro antimicrobial activity against microorganisms was determined in the agar dilution test (P. Klein, loc. cit.).

[3] = test system: Candida albicans ATCC 14052; experiment: as above; format: cell-based
Method: as §1

[4] = test system: Epidermophyton floccosum ATCC 10227; experiment: as above; format: cell-based
Method: as §1

[5] = test system: Mikrosporon ferrugineum CBS 317.31; experiment: as above; format: cell-based
Method: as §1

[6] = 0.2% suspension, 7 days after treatment
[7] = 1.0% suspension, 7 days after treatment

SMILES: Clc1ccccc1C(c1ccccc1)(c1ccccc1)n1ccnc1 [Clotrimazole, reference compound]
- fraction of animals in which infection was observed ([1]; 0.2% suspension, 4 days): 3/5
- fraction of animals in which infection was observed ([1]; 0.2% suspension, 7 days): 3/5
- fraction of animals in which infection was observed [1, 6]: 3/5
- fraction of animals in which infection was observed ([1]; 1.0% suspension, 4 days): 2/5
- fraction of animals in which infection was observed ([1]; 1.0% suspension, 7 days): 0/5
- fraction of animals in which infection was observed [1, 7]: 3/5

SMILES: CCCN(CCC)CC(C)C[C@H]1CC[C@H](C(C)(C)C)CC1 (stereo partly drawn) [Example 1, trans-3-(4'-tert.-Butylcyclohex-1'-yl)-2-methyl-1-(N-di-n-propylamino)-propane]
- Minimum inhibitory concentrations [2]: < 0.125
- Minimum inhibitory concentrations [3]: < 0.125
- Minimum inhibitory concentrations [4]: < 0.125
- Minimum inhibitory concentrations [5]: < 0.125
- fraction of animals in which infection was observed ([1]; 0.2% suspension, 4 days): 3/5
- fraction of animals in which infection was observed ([1]; 0.2% suspension, 7 days): 2/5
- fraction of animals in which infection was observed [1, 6]: 1/5
- fraction of animals in which infection was observed ([1]; 0.5% suspension, 4 days): 0/5
- fraction of animals in which infection was observed ([1]; 0.5% suspension, 7 days): 0/5
- fraction of animals in which infection was observed ([1]; 0.5% suspension, 7 days after treatment): 0/5
- fraction of animals in which infection was observed ([1]; 1.0% suspension, 4 days): 1/5
- fraction of animals in which infection was observed ([1]; 1.0% suspension, 7 days): 0/5
- fraction of animals in which infection was observed [1, 7]: 0/5

SMILES: CCCN(CC)CC(C)C[C@H]1CC[C@H](C(C)(C)C)CC1 (stereo partly drawn) [Example 2, trans-3-(4'-tert.-Butylcyclohex-1'-yl)-2-methyl-1-(N-ethyl-N-n-propylamino)-propane]
- Minimum inhibitory concentrations [2]: 0.25
- Minimum inhibitory concentrations [3]: 1
- Minimum inhibitory concentrations [4]: 0.25
- Minimum inhibitory concentrations [5]: < 0.125

SMILES: Cc1cccc(N(C)C(=S)Oc2ccc3ccccc3c2)c1 [Tolnaftate, reference compound]
- fraction of animals in which infection was observed ([1]; 1.0% suspension, 4 days): 0/9
- fraction of animals in which infection was observed ([1]; 1.0% suspension, 7 days): 0/9
- fraction of animals in which infection was observed [1, 7]: 2/9
